# According to the supplement of paper PMC4314810:
# ± gives the standard deviation of the averaged measurements.
# Test system: MCF7
# Experiment: HRG-induced Akt activation (dPAkt = log2 pAkt/Akt HRG-stimulated minus log2 pAkt/Akt basal) (log2 ratio difference); higher = stronger HRG-induced Akt(T308) phosphorylation
# Conditions: miRNA mimic concentration 10 nM; time after transfection 72 h; heregulin 10 ng/ml; stimulation time 1 h
# Outline: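 MCF7 cells were plated […] in 96-well plates and transfected in two biological replicates with a library of 879 miRNA mimics (10 nM final) using Lipofectamine RNAiMax; 72 h later they were stimulated for 1 h with 10 ng/ml heregulin-beta1 or left unstimulated. After fixation in 4% PFA, phospho-Akt(T308) and total Akt were measured by In-Cell Western on an Odyssey, with signals corrected for column-wise fixation decay. Heregulin-induced Akt activation is the stimulated minus unstimulated value of the log ratio of phospho-Akt to total Akt, averaged over replicates. That log ratio is log2(pAkt/Akt).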
row,Sequence,HRG-induced Akt activation (log2)
1,AAAGGAUUCUGCUGUCGGUCCCACU,1.63 ± 0.2
2,UAUGUAACAUGGUCCACUAACU,1.97 ± 0.17
3,CUAGGUAUGGUCCCAGGGAUCC,1.26 ± 0.24
4,UGGAUUUCUUUGUGAAUCACCA,1.87 ± 0.11
5,AGGUUGUCCGUGGUGAGUUCGCA,1.02 ± 0.18
6,AGGAGGCAGCGCUCUCAGGAC,1.54 ± 0.61
7,GUGACAUCACAUAUACGGCAGC,1.08 ± 0.31
8,UUUAACAUGGGGGUACCUGCUG,1.59 ± 0.42
9,UAGCAGCACAUAAUGGUUUGUG,1.98 ± 0.18
10,AUAUUACCAUUAGCUCAUCUUU,1.42 ± 0.089
11,UUUAGAGACGGGGUCUUGCUCU,1.54 ± 0.51
12,UGAGAACUGAAUUCCAUGGGUU,2.55 ± 0.058
13,GUUCUCCCAACGUAAGCCCAGC,1.62 ± 0.15
14,CAAGCUUGUAUCUAUAGGUAUG,1.59 ± 0.17
15,CUUGGUUCAGGGAGGGUCCCCA,1.58 ± 0.43
16,UGAGAUGAAGCACUGUAGCUC,1.18 ± 0.22
17,CUGCAAUGUAAGCACUUCUUAC,0.874 ± 0.36
18,UUAUUGCUUAAGAAUACGCGUAG,1.64 ± 0.095
19,CAGCAGCAAUUCAUGUUUUGAA,1.53 ± 0.33
20,UGUCUUACUCCCUCAGGCACAU,1.47 ± 0.054
21,AGACUUCCCAUUUGAAGGUGGC,1.52 ± 0.18
22,UCACAGUGAACCGGUCUCUUU,1.04 ± 0.063
23,ACUCCAUUUGUUUUGAUGAUGGA,1.19 ± 0.29
24,UCCAUUACACUACCCUGCCUCU,1.37 ± 0.17

row,Sequence,HRG-induced Akt activation (log2)
1,AAGUGCCGCCAUCUUUUGAGUGU,0.888 ± 0.34
2,UUCACAUUGUGCUACUGUCUGC,1.59 ± 0.03
3,UCCUCUUCUCCCUCCUCCCAG,1.77 ± 0.039
4,GACACGGGCGACAGCUGCGGCCC,1.03 ± 0.89
5,CUGUAUGCCCUCACCGCUCA,2.27 ± 0.32
6,ACUUACAGACAAGAGCCUUGCUC,1.68 ± 0.16
7,AUGAUCCAGGAACCUGCCUCU,2.49 ± 0.056
8,CCUAUUCUUGGUUACUUGCACG,1.29 ± 0.1
9,GCCCGCGUGUGGAGCCAGGUGU,1.39 ± 0.14
10,CCUCUGGGCCCUUCCUCCAG,0.844 ± 0.012
11,AGGGACGGGACGCGGUGCAGUG,1.15 ± 0.12
12,ACUGGCUAGGGAAAAUGAUUGGAU,1.24 ± 0.61
13,CUCCAGAGGGAAGUACUUUCU,2.02 ± 0.14
14,ACCCGUCCCGUUCGUCCCCGGA,1.513 ± 0.0044
15,ACUGCAGUGAAGGCACUUGUAG,1.646 ± 0.0061
16,UCCAGCAUCAGUGAUUUUGUUG,1.77 ± 0.17
17,UCUCGCUGGGGCCUCCA,1.22 ± 0.36
18,UGAUUGUAGCCUUUUGGAGUAGA,1.96 ± 0.18
19,UAUUGCACUUGUCCCGGCCUGU,1.3 ± 0.12
20,UGCAGGACCAAGAUGAGCCCU,1.41 ± 0.17
21,CCACCACCGUGUCUGACACUU,1.84 ± 0.088
22,CGUGCCACCCUUUUCCCCAG,1.18 ± 0.34
23,CUGGGAGAGGGUUGUUUACUCC,0.876 ± 0.34
24,ACCAGGAGGCUGAGGCCCCU,1.68 ± 0.1

row,Sequence,HRG-induced Akt activation (log2)
1,CACUGUGUCCUUUCUGCGUAG,1.86 ± 0.19
2,GCUAGUCCUGACUCAGCCAGU,2.19 ± 0.26
3,CUCAUCUGCAAAGAAGUAAGUG,1.5 ± 0.58
4,UGGACUGCCCUGAUCUGGAGA,1.55 ± 0.66
5,CCAAUAUUGGCUGUGCUGCUCC,1.32 ± 0.36
6,AAGUGCUGUCAUAGCUGAGGUC,0.879 ± 0.58
7,GUGUGCGGAAAUGCUUCUGCUA,1.18 ± 0.2
8,CAGCAGCACACUGUGGUUUGU,1.54 ± 0.46
9,CCUCUAGAUGGAAGCACUGUCU,1.41 ± 0.026
10,GGUGGCCCGGCCGUGCCUGAGG,1.55 ± 0.26
11,CAAAGUGCUUACAGUGCAGGUAG,1.23 ± 0.17
12,GUUCAAAUCCAGAUCUAUAAC,1.08 ± 0.18
13,ACAGGUGAGGUUCUUGGGAGCC,1.32 ± 0.087
14,CCUGUUGAAGUGUAAUCCCCA,1.21 ± 0.058
15,AACAUUCAACGCUGUCGGUGAGU,1.71 ± 0.13
16,CAGGGAGGUGAAUGUGAU,1.71 ± 0.099
17,UAGCUUAUCAGACUGAUGUUGA,1.73 ± 0.11
18,UAGGUUAUCCGUGUUGCCUUCG,1.17 ± 0.16
19,AUCGGGAAUGUCGUGUCCGCCC,1.6 ± 0.039
20,UACGUAGAUAUAUAUGUAUUUU,1.5 ± 0.16
21,CAAGUCUUAUUUGAGCACCUGUU,1.94 ± 0.12
22,UUUUCAACUCUAAUGGGAGAGA,1.48 ± 0.1
23,UUUCCGGCUCGCGUGGGUGUGU,1.627 ± 0.015
24,UUGAGAAGGAGGCUGCUG,1.18 ± 0.17

row,Sequence,HRG-induced Akt activation (log2)
1,UAUGGCUUUUCAUUCCUAUGUGA,1.12 ± 0.29
2,CUGGUACAGGCCUGGGGGACAG,1.68 ± 0.29
3,GCUGGGCAGGGCUUCUGAGCUCCUU,1.68 ± 0.082
4,AACUGGCCCUCAAAGUCCCGCU,2.215 ± 0.013
5,UUGCAUAGUCACAAAAGUGAUC,1.36 ± 0.096
6,AGUCAUUGGAGGGUUUGAGCAG,1.86 ± 0.057
7,UGGCCCUGACUGAAGACCAGCAGU,1.11 ± 0.22
8,CUCCCACAUGCAGGGUUUGCA,1.81 ± 0.022
9,CGCAUCCCCUAGGGCAUUGGUGU,2.62 ± 0.28
10,AGCUACAUUGUCUGCUGGGUUUC,1.72 ± 0.17
11,UGGAGGAGAAGGAAGGUGAUG,1.81 ± 0.038
12,GAUGAGCUCAUUGUAAUAUGAG,1.71 ± 0.24
13,AUGGGUGAAUUUGUAGAAGGAU,1.81 ± 0.12
14,GUGAGGACUCGGGAGGUGG,1.19 ± 0.87
15,CAAAGUUUAAGAUCCUUGAAGU,1.08 ± 0.53
16,UGCUGGAUCAGUGGUUCGAGUC,2.32 ± 0.36
17,CUUAGCAGGUUGUAUUAUCAUU,1.81 ± 0.098
18,UCCCUGUCCUCCAGGAGCUCACG,1.79 ± 0.13
19,UUGGCCACAAUGGGUUAGAAC,1.02 ± 0.1
20,AAAACUGUAAUUACUUUUGUAC,1.26 ± 0.31
21,GACCUGGACAUGUUUGUGCCCAGU,1.71 ± 0.12
22,GGGCGCCUGUGAUCCCAAC,1.62 ± 0.015
23,CGGGUGGAUCACGAUGCAAUUU,2.37 ± 0.063
24,UCCGUCUCAGUUACUUUAUAGC,1.63 ± 0.18

row,Sequence,HRG-induced Akt activation (log2)
1,AAGCAUUCUUUCAUUGGUUGG,1.4 ± 0.014
2,AGUUUUGCAUAGUUGCACUACA,1.37 ± 0.032
3,GUGAGGGCAUGCAGGCCUGGAUGGGG,1.43 ± 0.21
4,CGCAGGGGCCGGGUGCUCACCG,1.59 ± 0.09
5,UACCCUGUAGAACCGAAUUUGUG,1.99 ± 0.17
6,AUCACACAAAGGCAACUUUUGU,1.78 ± 0.33
7,ACGCCCUUCCCCCCCUUCUUCA,1.22 ± 0.47
8,UAUUGCACUCGUCCCGGCCUCC,1.33 ± 0.043
9,UGGUUGUAGUCCGUGCGAGAAUA,1.37 ± 0.19
10,AACAUCACAGCAAGUCUGUGCU,1.32 ± 0.38
11,AGGAUGAGCAAAGAAAGUAGAUU,1.13 ± 0.25
12,UAUGGCACUGGUAGAAUUCACU,1.65 ± 0.3
13,CGUGUAUUUGACAAGCUGAGUU,2.29 ± 0.19
14,AAAGUGCAUCUUUUUAGAGGAU,0.724 ± 0.058
15,CUGCCAAUUCCAUAGGUCACAG,1.47 ± 0.11
16,GAUUGCUCUGCGUGCGGAAUCGAC,1.24 ± 0.29
17,CAAAGGUAUUUGUGGUUUUUG,1.74 ± 0.066
18,CUCUAGAGGGAAGCACUUUCUG,2.15 ± 0.078
19,AGCUGUCUGAAAAUGUCUU,1.08 ± 0.3
20,AAUCGUACAGGGUCAUCCACUU,1.46 ± 0.051
21,ACUGCCCCAGGUGCUGCUGG,1.25 ± 0.16
22,AAAAGUAAUUGUGGUUUUGGCC,1.15 ± 0.15
23,AAGACGGGAGGAAAGAAGGGAG,1.22 ± 0.24
24,AAUUGCACGGUAUCCAUCUGUA,1.15 ± 0.15

row,Sequence,HRG-induced Akt activation (log2)
1,AGUGGGGAACCCUUCCAUGAGG,1.94 ± 0.25
2,CACAAGGUAUUGGUAUUACCU,1.79 ± 0.25
3,AAAUCUCUGCAGGCAAAUGUGA,1.19 ± 0.11
4,CCUAUUCUUGAUUACUUGUUUC,1.273 ± 0.0028
5,UGCCUGUCUACACUUGCUGUGC,1.34 ± 0.089
6,AAUGGCGCCACUAGGGUUGUG,1.42 ± 0.35
7,UAUUGCACAUUACUAAGUUGCA,1.07 ± 0.077
8,UACCCUGUAGAUCCGAAUUUGUG,1.47 ± 0.25
9,UCAAAUGCUCAGACUCCUGUGGU,1.63 ± 0.19
10,AUGCUGACAUAUUUACUAGAGG,0.706 ± 0.25
11,UUCAACGGGUAUUUAUUGAGCA,1.34 ± 0.24
12,AAGUGAUCUAAAGGCCUACAU,1.67 ± 0.14
13,UAGCAAAAACUGCAGUUACUUU,1.86 ± 0.15
14,UCCCCCAGGUGUGAUUCUGAUUU,1.14 ± 0.29
15,AGUGUGGCUUUCUUAGAGC,0.799 ± 1.1
16,AGGGGUGGUGUUGGGACAGCUCCGU,2.91 ± 0.23
17,UGUAACAGCAACUCCAUGUGGA,0.984 ± 0.7
18,CACACACUGCAAUUACUUUUGC,1.53 ± 0.053
19,CUCCUACAUAUUAGCAUUAACA,1.12 ± 0.31
